Source: article PMC11277489, “Novel Piperazine Derivatives of Vindoline as Anticancer Agents” (International Journal of Molecular Sciences, 2024)

Tests used:
KM12 = assay: NCI60 one-dose screen (10 μM), Colon Cancer; assay type: cell-based, human; conditions: Homo sapiens; 10 μM; KM12, Colon Cancer; read-out: Growth percent rate
HS 578T = assay: NCI60 one-dose screen (10 μM), Breast Cancer; assay type: cell-based; conditions: Homo sapiens; 10 μM; HS 578T, Breast Cancer; read-out: Growth percent rate
A498 = assay: NCI60 one-dose screen (10 μM), Renal Cancer; assay type: cell-based; conditions: Homo sapiens; 10 μM; A498, Renal Cancer; read-out: Growth percent rate
HL-60(TB) = assay: NCI60 one-dose screen (10 μM), Leukemia; assay type: cell-based; conditions: Homo sapiens; 10 μM; HL-60(TB), Leukemia; read-out: Growth percent rate
[1] = test system: 60 human tumor cell lines (NCI60); assay: NCI60 one-dose screen (10 μM), whole panel; assay type: cell-based
TK-10 = assay: NCI60 one-dose screen (10 μM), Renal Cancer; assay type: cell-based; conditions: Homo sapiens; 10 μM; TK-10, Renal Cancer; read-out: Growth percent rate
RPMI-8226 = assay: NCI60 one-dose screen (10 μM), Leukemia; assay type: cell-based; conditions: Homo sapiens; 10 μM; RPMI-8226, Leukemia; read-out: Growth percent rate
NCI-H23 = assay: NCI60 one-dose screen (10 μM), Non-small Cell Lung Cancer; assay type: cell-based; conditions: Homo sapiens; 10 μM; NCI-H23, Non-small Cell Lung Cancer; read-out: Growth percent rate
OVCAR-4 = assay: NCI60 one-dose screen (10 μM), Ovarian Cancer; assay type: cell-based; conditions: Homo sapiens; 10 μM; OVCAR-4, Ovarian Cancer; read-out: Growth percent rate
NCI-H460 = assay: NCI60 one-dose screen (10 μM), Non-small Cell Lung Cancer; assay type: cell-based; conditions: Homo sapiens; 10 μM; NCI-H460, Non-small Cell Lung Cancer; read-out: Growth percent rate
SF-268 = assay: NCI60 one-dose screen (10 μM), CNS Cancer; assay type: cell-based; conditions: Homo sapiens; 10 μM; SF-268, CNS Cancer; read-out: Growth percent rate
MDA-MB-435 = assay: NCI60 one-dose screen (10 μM), Melanoma; assay type: cell-based; conditions: Homo sapiens; 10 μM; MDA-MB-435, Melanoma; read-out: Growth percent rate
IGROV1 = assay: NCI60 one-dose screen (10 μM), Ovarian Cancer; assay type: cell-based; conditions: Homo sapiens, IGROV-1; 10 μM; IGROV1, Ovarian Cancer; read-out: Growth percent rate
OVCAR-8 = assay: NCI60 one-dose screen (10 μM), Ovarian Cancer; assay type: cell-based; conditions: Homo sapiens; 10 μM; OVCAR-8, Ovarian Cancer; read-out: Growth percent rate
RXF 393 = assay: NCI60 one-dose screen (10 μM), Renal Cancer; assay type: cell-based, human; conditions: Homo sapiens; 10 μM; RXF 393, Renal Cancer; read-out: Growth percent rate
CCRF-CEM = assay: NCI60 one-dose screen (10 μM), Leukemia; assay type: cell-based; conditions: Homo sapiens, 10 μM, Leukemia, read-out: Growth percent rate
A549/ATCC = assay: NCI60 one-dose screen (10 μM), Non-small Cell Lung Cancer; assay type: cell-based; conditions: Homo sapiens; 10 μM; A549/ATCC, Non-small Cell Lung Cancer; read-out: Growth percent rate
SN12C = assay: NCI60 one-dose screen (10 μM), Renal Cancer; assay type: cell-based; conditions: Homo sapiens, 10 μM, Renal Cancer, read-out: Growth percent rate
ACHN = assay: NCI60 one-dose screen (10 μM), Renal Cancer; assay type: cell-based; conditions: Homo sapiens, 10 μM, Renal Cancer, read-out: Growth percent rate
SK-MEL-28 = assay: NCI60 one-dose screen (10 μM), Melanoma; assay type: cell-based; conditions: Homo sapiens; 10 μM; SK-MEL-28, Melanoma; read-out: Growth percent rate
OVCAR-3 = assay: NCI60 one-dose screen (10 μM), Ovarian Cancer; assay type: cell-based; conditions: Homo sapiens; 10 μM; OVCAR-3, Ovarian Cancer; read-out: Growth percent rate
K-562 = assay: NCI60 one-dose screen (10 μM), Leukemia; assay type: cell-based; conditions: Homo sapiens, K562; 10 μM; K-562, Leukemia; read-out: Growth percent rate
EKVX = assay: NCI60 one-dose screen (10 μM), Non-small Cell Lung Cancer; assay type: cell-based; conditions: Homo sapiens, 10 μM, Non-small Cell Lung Cancer, read-out: Growth percent rate
HOP-62 = assay: as above; assay type: cell-based; conditions: Homo sapiens; 10 μM; HOP-62, Non-small Cell Lung Cancer; read-out: Growth percent rate
UACC-257 = assay: NCI60 one-dose screen (10 μM), Melanoma; assay type: cell-based; conditions: Homo sapiens; 10 μM; UACC-257, Melanoma; read-out: Growth percent rate
SNB-75 = assay: NCI60 one-dose screen (10 μM), CNS Cancer; assay type: cell-based, human; conditions: Homo sapiens; 10 μM; SNB-75, CNS Cancer; read-out: Growth percent rate
786–0 = assay: NCI60 one-dose screen (10 μM), Renal Cancer; assay type: cell-based; conditions: Homo sapiens; 10 μM; 786-0, Renal Cancer; read-out: Growth percent rate
SF-539 = assay: NCI60 one-dose screen (10 μM), CNS Cancer; assay type: cell-based, human; conditions: Homo sapiens; 10 μM; SF-539, CNS Cancer; read-out: Growth percent rate
LOX IMVI = assay: NCI60 one-dose screen (10 μM), Melanoma; assay type: cell-based, human; conditions: Homo sapiens; 10 μM; LOX IMVI, Melanoma; read-out: Growth percent rate
SW-620 = assay: NCI60 one-dose screen (10 μM), Colon Cancer; assay type: cell-based; conditions: Homo sapiens; 10 μM; SW-620, Colon Cancer; read-out: Growth percent rate
NCI-H322M = assay: NCI60 one-dose screen (10 μM), Non-small Cell Lung Cancer; assay type: cell-based; conditions: Homo sapiens, 10 μM, Non-small Cell Lung Cancer, read-out: Growth percent rate
COLO 205 = assay: NCI60 one-dose screen (10 μM), Colon Cancer; assay type: cell-based, human; conditions: Homo sapiens; 10 μM; COLO 205, Colon Cancer; read-out: Growth percent rate
CAKI-1 = assay: NCI60 one-dose screen (10 μM), Renal Cancer; assay type: cell-based; conditions: Homo sapiens; 10 μM; CAKI-1, Renal Cancer; read-out: Growth percent rate
SK-MEL-2 = assay: NCI60 one-dose screen (10 μM), Melanoma; assay type: cell-based; conditions: Homo sapiens; 10 μM; SK-MEL-2, Melanoma; read-out: Growth percent rate
SF-295 = assay: NCI60 one-dose screen (10 μM), CNS Cancer; assay type: cell-based; conditions: Homo sapiens; 10 μM; SF-295, CNS Cancer; read-out: Growth percent rate
HCT-15 = assay: NCI60 one-dose screen (10 μM), Colon Cancer; assay type: cell-based; conditions: Homo sapiens; 10 μM; HCT-15, Colon Cancer; read-out: Growth percent rate
NCI-H522 = assay: NCI60 one-dose screen (10 μM), Non-small Cell Lung Cancer; assay type: cell-based; conditions: Homo sapiens; 10 μM; NCI-H522, Non-small Cell Lung Cancer; read-out: Growth percent rate
MALME-3M = assay: NCI60 one-dose screen (10 μM), Melanoma; assay type: cell-based; conditions: Homo sapiens; 10 μM; MALME-3M, Melanoma; read-out: Growth percent rate
HCT-116 = assay: NCI60 one-dose screen (10 μM), Colon Cancer; assay type: cell-based; conditions: Homo sapiens; 10 μM; HCT-116, Colon Cancer; read-out: Growth percent rate
MOLT-4 = assay: NCI60 one-dose screen (10 μM), Leukemia; assay type: cell-based, human; conditions: Homo sapiens; 10 μM; MOLT-4, Leukemia; read-out: Growth percent rate
U251 = assay: NCI60 one-dose screen (10 μM), CNS Cancer; assay type: cell-based; conditions: Homo sapiens, U-251; 10 μM; U251, CNS Cancer; read-out: Growth percent rate
MCF7 = assay: NCI60 one-dose screen (10 μM), Breast Cancer; assay type: cell-based; conditions: Homo sapiens; 10 μM; MCF7, Breast Cancer; read-out: Growth percent rate

Q: With `CC[C@]12C=CCN3CC[C@@]4(c5ccc(OC)cc5N(C)[C@H]4[C@@](O)(C(=O)OC)[C@@H]1OC(=O)CCCN1CCN(Cc4ccc(C(F)(F)F)cc4)CC1)[C@@H]32` [Compound 23] as the compound, how does the activity at 10 µM (KM12) read?
A: The activity at 10 µM was -70.9%.

Q: What about the activity at 10 µM (HS 578T) of the same compound?
A: Its activity at 10 µM is -61.1%.

Q: And the activity at 10 µM (A498)?
A: The activity at 10 µM was -93.9%.

Q: What about the activity at 10 µM (HL-60(TB)) of the same compound?
A: Its activity at 10 µM is -65.8%.

Q: What about the growth rate ([1]; 10 μM one-dose, on almost all tested cancer types and cell lines, negative = lethality) of the same compound?
A: The growth rate was less than −60%.

Q: And the activity at 10 µM ([1]; 10 μM, mean over 60 human cancer cell lines, read-out: Growth percent rate, Mean)?
A: Its activity at 10 µM is -71.8%.

Q: And the activity at 10 µM (TK-10)?
A: The activity at 10 µM was -81.7%.

Q: And the activity at 10 µM (RPMI-8226)?
A: Its activity at 10 µM is -58.3%.

Q: And the activity at 10 µM (NCI-H23)?
A: The activity at 10 µM was -71.3%.

Q: And the activity at 10 µM (OVCAR-4)?
A: Its activity at 10 µM is -32.1%.

Q: And the activity at 10 µM (NCI-H460)?
A: Its activity at 10 µM is -84.7%.

Q: What about the activity at 10 µM (SF-268) of the same compound?
A: The activity at 10 µM was -55.1%.

Q: What about the activity at 10 µM (MDA-MB-435) of the same compound?
A: Its activity at 10 µM is -95.3%.

Q: What about the activity at 10 µM (IGROV1) of the same compound?
A: The activity at 10 µM was -71%.

Q: And the activity at 10 µM (OVCAR-8)?
A: The activity at 10 µM was -42%.

Q: What about the activity at 10 µM (RXF 393) of the same compound?
A: Its activity at 10 µM is -85.3%.

Q: What about the activity at 10 µM (CCRF-CEM) of the same compound?
A: Its activity at 10 µM is -63.1%.

Q: And the activity at 10 µM (A549/ATCC)?
A: The activity at 10 µM was -67.8%.

Q: And the activity at 10 µM (SN12C)?
A: Its activity at 10 µM is -4.35%.

Q: What about the activity at 10 µM (ACHN) of the same compound?
A: The activity at 10 µM was -78.1%.

Q: And the activity at 10 µM (SK-MEL-28)?
A: The activity at 10 µM was -94.8%.

Q: And the activity at 10 µM (OVCAR-3)?
A: Its activity at 10 µM is -68.4%.

Q: What about the activity at 10 µM (K-562) of the same compound?
A: Its activity at 10 µM is -73.3%.

Q: What about the activity at 10 µM (EKVX) of the same compound?
A: Its activity at 10 µM is -75.1%.

Q: And the activity at 10 µM (HOP-62)?
A: The activity at 10 µM was -86.7%.

Q: What about the activity at 10 µM (UACC-257) of the same compound?
A: Its activity at 10 µM is -82.2%.

Q: What about the activity at 10 µM (SNB-75) of the same compound?
A: The activity at 10 µM was -68.8%.

Q: What about the activity at 10 µM (786–0) of the same compound?
A: Its activity at 10 µM is -95.7%.

Q: What about the activity at 10 µM (SF-539) of the same compound?
A: The activity at 10 µM was -98.5%.

Q: What about the activity at 10 µM (LOX IMVI) of the same compound?
A: Its activity at 10 µM is -54.4%.

Q: And the activity at 10 µM (SW-620)?
A: The activity at 10 µM was -87.1%.

Q: And the activity at 10 µM (NCI-H322M)?
A: The activity at 10 µM was -48.2%.

Q: And the activity at 10 µM (COLO 205)?
A: Its activity at 10 µM is -82.9%.

Q: What about the activity at 10 µM (CAKI-1) of the same compound?
A: Its activity at 10 µM is -78%.

Q: And the activity at 10 µM (SK-MEL-2)?
A: The activity at 10 µM was -72.6%.

Q: What about the activity at 10 µM (SF-295) of the same compound?
A: The activity at 10 µM was -86.7%.

Q: What about the activity at 10 µM (HCT-15) of the same compound?
A: The activity at 10 µM was -68.1%.

Q: What about the activity at 10 µM (NCI-H522) of the same compound?
A: Its activity at 10 µM is -59.3%.

Q: What about the activity at 10 µM (MALME-3M) of the same compound?
A: Its activity at 10 µM is -95.2%.

Q: And the activity at 10 µM (HCT-116)?
A: The activity at 10 µM was -89.3%.

Q: What about the activity at 10 µM (MOLT-4) of the same compound?
A: Its activity at 10 µM is -68.5%.

Q: And the activity at 10 µM (U251)?
A: Its activity at 10 µM is -78.1%.

Q: What about the activity at 10 µM (MCF7) of the same compound?
A: Its activity at 10 µM is -74.3%.
